US20090299044A1 (priority 2006, published 2009)
Bridge positions count the residues as written; N and C are the ends. Peptide text beside a SMILES is read from it.

What was measured:
Test in all cases: cell-based
[1] = biological target: human Kv1.3 channel (Homo sapiens, UniProt P22001); type: cell-based
[2] = biological target: T1, human Kv1.3 (CHO) (Homo sapiens, UniProt P22001)
T1 construct: expressed in transfected cells; host or cells: CHO

[3] = biological target: T2, human Kv1.1 (HEK293) (Homo sapiens, UniProt Q09470)
T2 construct: expressed in transfected cells; host or cells: HEK293
T2 sequence (Q09470 whole entry): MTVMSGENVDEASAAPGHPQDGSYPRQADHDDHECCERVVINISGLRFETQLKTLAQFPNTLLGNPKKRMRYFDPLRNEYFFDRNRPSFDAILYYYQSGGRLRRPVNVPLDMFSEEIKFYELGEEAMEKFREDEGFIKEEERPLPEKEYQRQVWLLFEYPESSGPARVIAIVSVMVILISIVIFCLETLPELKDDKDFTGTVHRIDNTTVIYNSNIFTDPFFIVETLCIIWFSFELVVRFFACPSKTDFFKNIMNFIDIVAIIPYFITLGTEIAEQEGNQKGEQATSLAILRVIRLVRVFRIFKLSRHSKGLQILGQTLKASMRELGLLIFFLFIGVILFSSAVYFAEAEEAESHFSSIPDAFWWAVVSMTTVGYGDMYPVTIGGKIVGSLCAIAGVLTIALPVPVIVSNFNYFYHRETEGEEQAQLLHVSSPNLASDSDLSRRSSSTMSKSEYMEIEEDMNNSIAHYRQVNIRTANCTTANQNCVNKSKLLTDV

[4] = biological target: human Kv1.1 (Homo sapiens, UniProt Q09470); design: expressed in transfected cells; host or cells: HEK293
human Kv1.1, sequence (Q09470 whole entry): as above

T1 sequence (P22001 whole entry): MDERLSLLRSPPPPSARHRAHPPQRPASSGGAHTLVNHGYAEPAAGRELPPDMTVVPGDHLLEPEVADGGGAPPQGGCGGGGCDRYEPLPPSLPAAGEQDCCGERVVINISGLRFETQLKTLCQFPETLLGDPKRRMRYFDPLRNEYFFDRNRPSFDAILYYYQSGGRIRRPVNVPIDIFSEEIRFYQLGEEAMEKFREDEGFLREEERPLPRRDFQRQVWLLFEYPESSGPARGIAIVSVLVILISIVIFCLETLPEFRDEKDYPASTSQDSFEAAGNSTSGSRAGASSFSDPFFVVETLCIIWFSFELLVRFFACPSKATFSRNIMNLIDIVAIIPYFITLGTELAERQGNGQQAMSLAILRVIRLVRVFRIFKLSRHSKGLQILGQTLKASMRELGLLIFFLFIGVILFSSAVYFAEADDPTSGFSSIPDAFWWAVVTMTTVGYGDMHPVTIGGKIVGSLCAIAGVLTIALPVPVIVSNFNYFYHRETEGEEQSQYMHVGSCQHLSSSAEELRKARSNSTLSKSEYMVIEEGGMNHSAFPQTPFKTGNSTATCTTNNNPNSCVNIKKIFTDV
human Kv1.3 channel, sequence (P22001 whole entry): as above

## CC[C@H](C)[C@@H]1NC(=O)[C@H](CCCCN)NC(=O)[C@@H](NC(=O)[C@H](CCCCN)NC(=O)[C@@H](NC(=O)[C@H](CC(N)=O)NC(=O)[C@@H](NC(=O)[C@@H](NC(=O)[C@@H](NC(=O)CN)C(C)C)[C@@H](C)CC)[C@@H](C)CC)C(C)C)CSSC[C@@H]2NC(=O)[C@H](C)NC(=O)CNC(=O)[C@H](Cc3ccccc3)NC(=O)[C@H](CCCNC(=N)N)NC(=O)[C@H](CCSC)NC(=O)CNC(=O)[C@H](C)NC(=O)[C@H](CCCCN)NC(=O)[C@H](CCCCN)NC(=O)[C@@H]3CSSC[C@@H](C(=O)N[C@H](C(=O)N4CCC[C@H]4C(=O)N[C@@H](CCCCN)C(=O)O)[C@@H](C)O)NC(=O)[C@H](Cc4c[nH]cn4)NC(=O)[C@H](CSSC[C@H](NC(=O)[C@H](CCC(N)=O)NC(=O)[C@H](CCCNC(=N)N)NC(=O)[C@H](CO)NC1=O)C(=O)N[C@@H](CC(C)C)C(=O)N[C@@H](CCC(=O)O)C(=O)N1CCC[C@H]1C(=O)N3)NC(=O)[C@H](CCCCN)NC(=O)CNC(=O)[C@H](CC(N)=O)NC(=O)[C@H](CCSC)NC2=O [K27A] (H-GVIINVKCKISRQCLEPCKKAGMRFGACMNGKCHCTPK-OH; disulfide 8-28, 14-33, 18-35)
[1]
  IC50: 0.289 nM
[2]
  IC50: 0.232 nM
[3]
  IC50: > 3 nM
[4]
  IC50: 10.1 nM
